SMILES strings stand for the structures.

In data set [1] the test system is Myzus persicae. Description: Myzus test (MYZUPE spray treatment). It counts as in vivo. Particulars: 500 g/ha, Chinese cabbage discs, after 6 days. As to the method: Myzus test (MYZUPE Spray Treatment) Solvent: 78 parts by weight of acetone • • 1.5 parts by weight of dimethylformamide Emulsifier: 0.5 part by weight of alkylaryl polyglycol ether To prepare an appropriate active ingredient preparation, 1 part by weight of active ingredient is mixed with the stated amounts of solvent and emulsifier, and the concentrate is diluted with emulsifier-containing water to the desired concentration. Discs of Chinese cabbage (Brassica pekinensis) infested by all stages of the green peach aphid (Myzus persicae) are sprayed with an active ingredient preparation of the desired concentration. After 6 days, the efficacy in % is determined. 100% means that all of the aphids have been destroyed; 0% means that none of the aphids have been destroyed.

For data set [2], the system named is Ctenocephalides felis. Briefly: Ctenocephalides felis test (CTECFE). The format is in vivo. To be noted: 100 ppm in citrated cow's blood, after 2 days. Here is the method: Ctenocephalides felis Test ([…]) Solvent: 1 Part by Weight of Dimethyl Sulphoxide For the purpose of preparing an appropriate active ingredient formulation, 10 mg of active ingredient are mixed with 0.5 ml of dimethyl sulphoxide. A portion of the concentrate is diluted with citrated cow's blood and the desired concentration is established. About 20 unfed adult fleas (Ctenocephalides felis) are introduced into a chamber closed at the top and bottom with gauze. A metal cylinder, the bottom of which is closed with Parafilm, is placed onto the chamber. The cylinder contains the blood/active ingredient preparation, which can be imbibed by the fleas through the Parafilm membrane. After 2 days, the kill in % is determined. 100% means that all fleas have been killed; 0% means that none of the fleas have been killed.

The test system of data set [3] is Boophilus microplus females of the SP-resistant Parkhurst strain. Briefly: Boophilus microplus (dip). It counts as in vivo. Particulars: 100 ppm, after 7 days, laying of fertile eggs. Here is the method:
Boophilus microplus (dip)
Test animals: adult engorged Boophilus microplus females of the SP-resistant Parkhurst strain
Solvent: Dimethyl Sulphoxide
10 mg of active ingredient are dissolved in 0.5 ml of dimethyl sulphoxide. For the purpose of preparing a suitable formulation, the active ingredient solution is diluted with water to the concentration desired in each case. This active ingredient preparation is pipetted into tubes. 8-10 ticks are transferred into a further tube with holes. The tube is immersed into the active ingredient formulation, and all ticks are completely wetted. After the liquid has run out, the ticks are transferred onto filter discs in plastic dishes and stored in a climate-controlled room. The activity is assessed after 7 days by laying of fertile eggs. Eggs whose fertility is not outwardly visible are stored in glass tubes in a climate-controlled cabinet until the larvae hatch. Efficacy of 100% means that none of the ticks has laid any fertile eggs.

The nature of data set [4]: logP by reversed-phase HPLC (EEC Directive 79/831 Annex V.A8). To be noted: * LC-MS, acidic range, pH 2.7, 0.1% aqueous formic acid / acetonitrile. The format is physicochemical. The text has this: [table] The calibration is effected with unbranched alkan-2-ones (having 3 to 16 carbon atoms) with known log P values (log P values determined on the basis of the retention times by linear interpolation between two successive alkanones).

For data set [5], the system named is Spodoptera frugiperda. Briefly: Spodoptera frugiperda test (SPODFR spray treatment). The format is in vivo. To be noted: 500 g/ha, maize leaf discs, after 7 days. The gist of the method: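 Maize leaf discs sprayed with the compound at the desired concentration, formulated in acetone/dimethylformamide with alkylaryl polyglycol ether emulsifier and diluted in water, then infested with armyworm caterpillars after drying. Efficacy read after 7 days as % caterpillars killed (100% = all dead, 0% = none).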

For data set [6], the system named is Phaedon cochleariae. Description: Phaedon test (PHAECO spray treatment). It counts as in vivo. To be noted: 500 g/ha, Chinese cabbage discs, after 7 days. An outline of the steps:
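Chinese cabbage leaf discs were sprayed with compound formulated in acetone/dimethylformamide with alkylaryl polyglycol ether emulsifier and diluted in emulsifier-containing water. After drying, discs were populated with mustard beetle larvae. Efficacy (% larvae killed; 100% = all dead) was scored after 7 days.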

Data set [7] relates to Lucilia cuprina larvae. Description: Lucilia cuprina test (LUCICU). It counts as in vivo. Particulars: 100 ppm, treated horse meat, after 2 days. Here is the method: Lucilia cuprina Test (LUCICU) Solvent: Dimethyl Sulphoxide To prepare an appropriate active ingredient formulation, 10 mg of active ingredient are mixed with 0.5 ml of dimethyl sulphoxide and the concentrate is diluted with water to the desired concentration. Vessels containing horse meat treated with the active ingredient preparation of the desired concentration are populated with about 20 Lucilia cuprina larvae. After 2 days, the kill in % is determined. 100% means that all of the larvae have been killed; 0% means that none of the larvae have been killed.

Data set [8] has as its system Boophilus microplus. Briefly: Boophilus microplus test (BOOPMI injection). It counts as in vivo. To be noted: 20 μg/animal, injection into abdomen, after 7 days, laying of fertile eggs. Here is the method: Boophilus microplus Test (BOOPMI Injection) Solvent: Dimethyl Sulphoxide To prepare an appropriate active ingredient formulation, 10 mg of active ingredient are mixed with 0.5 ml of solvent and the concentrate is diluted with solvent to the desired concentration. The active ingredient solution is injected into the abdomen (Boophilus microplus), and the animals are transferred into dishes and stored in a climate-controlled room. The efficacy is assessed by laying of fertile eggs. After 7 days, the efficacy in % is determined. 100% means that none of the ticks has laid any fertile eggs.

For data set [9], the system named is Tetranychus urticae. Briefly: Tetranychus test, OP-resistant (TETRUR spray treatment). Particulars: 500 g/ha, bean leaf discs, after 6 days. The format is in vivo.
The test system of data set [10] is Musca domestica. Description: Musca domestica test. To be noted: 100 ppm, after 2 days. The format is in vivo. Here is the method:
Musca domestica Test Solvent: Dimethyl Sulphoxide To prepare an appropriate active ingredient formulation, 10 mg of active ingredient are mixed with 0.5 ml of dimethyl sulphoxide and the concentrate is diluted with water to the desired concentration. Vessels containing a sponge treated with the active ingredient preparation of the desired concentration are populated with adult Musca domestica. After 2 days, the kill in % is determined. 100% means that all of the flies have been killed; 0% means that none of the flies have been killed.

Take `COc1nccnc1-n1nc(C(F)(F)Cl)c(-c2cc(Cl)cc(C(F)(F)F)c2)c1N` [Ex. 17]: the efficacy in data set [1], in [3], in [5], in [6], in [8] and in [9] was 100% in each case. The “efficacy (kill)” value in [2], in data set [7] and in data set [10] was 100% throughout. Moreover, the “log P” value in [4] was 4.24*.
Regarding `COc1nccnc1-n1nc(C(F)(F)C(F)(F)F)c(-c2cc(Cl)cc(C(F)(F)F)c2)c1N` [Ex. 15], the efficacy in data set [1], in data set [3], in [5], in [6], in data set [8] and in data set [9] was 100% in each case. For the same molecule, the “efficacy (kill)” value in data set [2] was determined as 95%; in data set [7], 100%; in [10], 95%. Also, the “log P” value in [4] is reported as 4.58*.
Consider `COc1nccnc1-n1nc(C(F)(F)C(F)(F)OC)c(-c2cc(Cl)cc(C(F)(F)F)c2)c1N` [Ex. 47], for which the efficacy was 80% in data set [1]; 100% in data set [3]; 100% in data set [5]; 100% in [6]; 100% in data set [8]; 100% in data set [9]. In addition, the “efficacy (kill)” value in data set [2] amounted to 100%; in data set [7], 100%; in data set [10], 80%. Also, in [4], the “log P” value is reported as 3.98*.

The values are drawn from patent publication US20120190687A1, “Pyrazinylpyrazoles” (Bayer CropScience Ag, priority 2009, published 2012).
